Structures are written as SMILES.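 Test compounds were applied to cells in 96-well plates for 48 hours at 5 doses. The concentration for 50% growth inhibition is given as GI50. TGI marks complete inhibition of growth.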

Some test systems named below: 786-0 renal; SR leukemia; HCT-116 colon; OVCAR-4 ovarian; NCI/ADR-RES ovarian; MDA-N; HS 578T breast; UACC-62 melanoma; HCC-2998 colon; DLD-1 colon; KM20L2 colon; HOP-18 NSCLC.
Common to all, as to experiment: NCI tumour cell line growth inhibition, 48 h

On to `O=C1/C(=C/c2[nH]ncc2-c2ccc(Cl)cc2)C(=O)N(c2ccccc2)C1c1ccccc1` (stereo not given), for which the TGI in the test on 786-0 renal is 44.7 µM; in the test on SR leukemia, 30 µM; in the test with HCT-116 colon it was 25 µM; in the test with OVCAR-4 ovarian it was 96.5 µM; in the test on NCI/ADR-RES ovarian, over 100 µM; in the test on MDA-N, 36.9 µM. Also, the TGI turned out to be 24.2 µM in the test on HS 578T breast and 27.8 µM in the test with UACC-62 melanoma.
Take `OCCCSCCO`: the TGI in the test with 786-0 renal, with SR leukemia, with HCT-116 colon, in the test with OVCAR-4 ovarian, with NCI/ADR-RES ovarian and in the test with HCC-2998 colon was over 100 µM in each case. Besides, the TGI with MDA-N, with HS 578T breast and in the test with UACC-62 melanoma was over 100 µM throughout.
As to `O=C(Nc1ccc(-n2ccc3c(NC(=O)c4ccccc4)nccc32)cc1)Nc1cccc(C(F)(F)F)c1`, the GI50 is 1.49 µM in the test on SR leukemia; 2.91 µM in the test on HCT-116 colon; 2.65 µM with OVCAR-4 ovarian; 10.9 µM with NCI/ADR-RES ovarian; 7.46 µM in the test with HCC-2998 colon; 6.39 µM with HS 578T breast. In addition, the GI50 with UACC-62 melanoma was 7.36 µM. The TGI in the test with SR leukemia was determined as 4.28 µM; in the test on HCT-116 colon, 10.1 µM; in the test with OVCAR-4 ovarian it was 10.5 µM; with NCI/ADR-RES ovarian it was 28.7 µM; in the test on HCC-2998 colon, 22.4 µM; in the test on HS 578T breast, 40 µM. The same molecule had a TGI in the test with UACC-62 melanoma of 20.4 µM.
For `COC(=O)C1CC23C4=C(CCC41)CCC1CN4CC(C)C(CC(OC(C)=O)C12COC(C)=O)C43O` (stereo not given), the TGI in the test with 786-0 renal, in the test on HCT-116 colon, in the test with OVCAR-4 ovarian, in the test on NCI/ADR-RES ovarian, in the test with HCC-2998 colon and in the test on MDA-N was over 100 µM in each case. Also, the TGI in the test on HS 578T breast and in the test with UACC-62 melanoma was over 100 µM in each case.
Turning to `CCOC(=O)c1c(-c2cccc(Cl)c2)c(C(=O)OC)c(C)c2sc(C=O)nc12`, the TGI turned out to be 21.1 µM in the test with HCT-116 colon; 40.3 µM in the test on OVCAR-4 ovarian; 68.5 µM with NCI/ADR-RES ovarian; 56.7 µM in the test with MDA-N; 50.5 µM in the test with HS 578T breast; 32.2 µM in the test on UACC-62 melanoma.
Take `Cc1n[n+]([O-])c(C)cc1[N+](=O)[O-]`: the TGI in the test on 786-0 renal was over 100 µM; in the test on HCT-116 colon, 31.6 µM; in the test on OVCAR-4 ovarian it was 33.5 µM; in the test on NCI/ADR-RES ovarian, 42.1 µM; in the test on HCC-2998 colon, 25 µM; in the test on HS 578T breast, 66.9 µM. The same molecule showed a TGI in the test on UACC-62 melanoma of 31.5 µM.
Turning to `Cc1oc(N)c(S(=O)(=O)c2cc3ccccc3n(O)c2=N)c1C`, the TGI in the test with 786-0 renal, in the test on OVCAR-4 ovarian, with NCI/ADR-RES ovarian, in the test on HCC-2998 colon, in the test on MDA-N and with HS 578T breast was over 100 µM throughout. This molecule came in with a TGI with UACC-62 melanoma of over 100 µM.
Take `CC1(C(=O)O)C[C@](C)(C(=O)OCc2ccccc2)C[C@](C)(C(=O)OCc2ccccc2)C1` (stereo not given in full): the TGI was over 100 µM in the test with 786-0 renal; 83.7 µM with SR leukemia; 57.9 µM in the test with HCT-116 colon; over 100 µM in the test with OVCAR-4 ovarian; over 100 µM in the test on NCI/ADR-RES ovarian; 79.8 µM in the test with HCC-2998 colon. For the same molecule, the TGI was over 100 µM in the test on MDA-N, 89.8 µM with HS 578T breast and 45.4 µM with UACC-62 melanoma.
As for `COc1cc(C2c3cc4c(cc3[C@@H](Nc3ccc(Oc5ccccc5)cc3)C3COC(=O)[C@H]23)OCO4)cc(OC)c1O` (stereo not given in full), the TGI in the test with HCT-116 colon was over 100 µM; in the test with OVCAR-4 ovarian it was over 100 µM; with NCI/ADR-RES ovarian it was over 100 µM; in the test with DLD-1 colon, over 100 µM; in the test on KM20L2 colon, over 24.3 µM; in the test with HCC-2998 colon it was 13.8 µM. For the same molecule, the TGI in the test on HOP-18 NSCLC was over 100 µM; with UACC-62 melanoma it was 22.9 µM.
Consider `CC1=CC(O)C(C(O)(C(F)(F)F)C(F)(F)F)C(C)(C)C1` (stereo not given), for which the TGI in the test with HCT-116 colon, in the test with OVCAR-4 ovarian, with NCI/ADR-RES ovarian, with HCC-2998 colon, in the test with MDA-N and in the test on HS 578T breast was over 10 µM each time. The molecule also came in with a TGI in the test on UACC-62 melanoma of over 10 µM.
Turning to `Cc1cc2ccc(OC(=O)c3ccc(N=C(N)N)cc3)cc2oc1=O`, the TGI was 64.6 µM in the test on 786-0 renal; 58.4 µM with SR leukemia; 76.5 µM in the test on HCT-116 colon; 46.6 µM with OVCAR-4 ovarian; over 100 µM in the test with NCI/ADR-RES ovarian; 83.8 µM in the test on MDA-N. The TGI with HS 578T breast was 71.6 µM; in the test with UACC-62 melanoma, 79.1 µM.
Regarding `COc1ccc(-c2nn(-c3ccc(NC(=O)c4cc(Cl)cc(Cl)c4)cc3)cc2-c2ccncc2)cc1Cl`, the GI50 in the test with SR leukemia is 2.72 µM; in the test with HCT-116 colon it was 7 µM; in the test on OVCAR-4 ovarian it was over 100 µM; in the test with NCI/ADR-RES ovarian, over 100 µM; in the test on HCC-2998 colon, over 100 µM; in the test with UACC-62 melanoma, 5.27 µM. In addition, the TGI in the test on SR leukemia, with HCT-116 colon, in the test with OVCAR-4 ovarian, with NCI/ADR-RES ovarian, with HCC-2998 colon and with UACC-62 melanoma was over 100 µM each time.
Turning to `Nc1nnc(CCC(=O)Nc2cc(Cl)ccc2Cl)n1N`, the TGI in the test on SR leukemia, in the test on HCT-116 colon, in the test on OVCAR-4 ovarian, in the test on DLD-1 colon, in the test on KM20L2 colon and in the test on HCC-2998 colon was over 100 µM throughout. Further, the TGI in the test with HOP-18 NSCLC and in the test on UACC-62 melanoma was over 100 µM in each case.
Take `O=C(CC(c1ccccc1)C1C(=O)NC(=S)NC1=O)c1ccc([N+](=O)[O-])cc1` (stereo not given): the TGI with 786-0 renal, in the test on SR leukemia, with HCT-116 colon, in the test with OVCAR-4 ovarian, in the test on NCI/ADR-RES ovarian and in the test with HCC-2998 colon was over 100 µM in each case. For the same molecule, the TGI in the test with MDA-N, in the test on HS 578T breast and in the test with UACC-62 melanoma was over 100 µM in each case.

For the origin of these results see PubChem BioAssay (NCI).
